Consider 3 molecules from article PMC11314561, “Design and Synthesis of Novel Aminoindazole-pyrrolo[2,3-b]pyridine Inhibitors of IKKα That Selectively Perturb Cellular Non-Canonical NF-κB Signalling” (Molecules, 2024).

Common to all, as to test: kinase panel
Holding throughout (type): biochemical

One experiment deals with T1, GCK(h) (Homo sapiens, UniProt Q12851).
T1 sequence (Q12851 1-820): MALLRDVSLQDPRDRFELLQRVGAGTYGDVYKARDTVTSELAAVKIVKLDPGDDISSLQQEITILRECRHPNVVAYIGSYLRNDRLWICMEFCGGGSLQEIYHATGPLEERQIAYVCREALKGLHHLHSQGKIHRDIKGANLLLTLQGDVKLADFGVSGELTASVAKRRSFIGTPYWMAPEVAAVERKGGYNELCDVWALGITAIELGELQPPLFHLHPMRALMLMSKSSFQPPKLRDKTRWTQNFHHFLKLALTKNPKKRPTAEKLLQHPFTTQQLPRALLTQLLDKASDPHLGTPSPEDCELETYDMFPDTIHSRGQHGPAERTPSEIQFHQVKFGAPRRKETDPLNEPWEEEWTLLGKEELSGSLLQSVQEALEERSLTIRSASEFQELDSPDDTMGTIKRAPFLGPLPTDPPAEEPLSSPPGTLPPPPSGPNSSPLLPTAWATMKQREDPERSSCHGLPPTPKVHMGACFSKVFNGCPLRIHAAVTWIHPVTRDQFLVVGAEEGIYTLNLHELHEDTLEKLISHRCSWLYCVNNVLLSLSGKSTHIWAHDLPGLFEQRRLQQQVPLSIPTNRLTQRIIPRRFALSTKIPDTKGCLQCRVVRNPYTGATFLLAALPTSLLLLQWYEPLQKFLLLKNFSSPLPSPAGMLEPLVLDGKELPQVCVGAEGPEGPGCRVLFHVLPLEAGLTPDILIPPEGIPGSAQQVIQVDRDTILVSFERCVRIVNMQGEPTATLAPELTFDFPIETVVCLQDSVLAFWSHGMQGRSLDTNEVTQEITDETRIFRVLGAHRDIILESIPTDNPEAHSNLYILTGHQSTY
The source says: (§1) We profiled three compounds from the series across the kinome (Table S1).
(§2) Ta b l e S1. The % inhibition of compounds 4, 5r [SU1261], and 6g [SU1349] against a
(§3) panel of kinase enzymes. We proϐiled three compounds from the series across 231
(§4) kinases. For SU1349, given its structural similarity with SU1261, we selected 98 from the
(§5) Tested kinase % inhibiƟon

The target of a further experiment is T2, EphA1(h) (Homo sapiens, UniProt P21709).
T2 sequence (P21709 26-976): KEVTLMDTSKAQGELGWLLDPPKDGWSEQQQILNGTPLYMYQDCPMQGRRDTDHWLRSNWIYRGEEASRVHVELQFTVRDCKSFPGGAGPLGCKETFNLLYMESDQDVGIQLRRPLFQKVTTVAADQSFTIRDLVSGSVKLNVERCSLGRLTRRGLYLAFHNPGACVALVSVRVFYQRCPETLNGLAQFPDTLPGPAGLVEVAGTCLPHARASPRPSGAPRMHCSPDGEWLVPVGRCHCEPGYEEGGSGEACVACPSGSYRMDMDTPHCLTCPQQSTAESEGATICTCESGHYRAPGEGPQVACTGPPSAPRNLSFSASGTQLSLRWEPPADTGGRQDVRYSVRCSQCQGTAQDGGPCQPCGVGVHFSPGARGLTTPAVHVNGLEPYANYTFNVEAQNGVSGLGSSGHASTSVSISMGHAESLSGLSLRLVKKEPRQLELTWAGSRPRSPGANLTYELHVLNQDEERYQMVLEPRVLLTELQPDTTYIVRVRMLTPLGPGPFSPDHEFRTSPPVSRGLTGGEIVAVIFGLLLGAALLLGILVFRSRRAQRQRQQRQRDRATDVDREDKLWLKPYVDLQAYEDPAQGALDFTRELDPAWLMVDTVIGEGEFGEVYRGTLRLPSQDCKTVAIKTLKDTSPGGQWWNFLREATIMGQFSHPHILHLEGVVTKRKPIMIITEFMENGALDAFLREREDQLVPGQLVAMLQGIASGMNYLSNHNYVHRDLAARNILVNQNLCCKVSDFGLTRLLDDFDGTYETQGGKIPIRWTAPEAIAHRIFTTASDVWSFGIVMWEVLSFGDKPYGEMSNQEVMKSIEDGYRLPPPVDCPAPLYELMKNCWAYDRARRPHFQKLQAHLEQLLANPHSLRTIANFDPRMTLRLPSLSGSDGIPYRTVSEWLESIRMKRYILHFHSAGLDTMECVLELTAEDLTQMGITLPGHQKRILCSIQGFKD
Excerpt: as §1, §2, §3, §4, §5

The target in the next experiment is T3, Haspin(h) (Homo sapiens, UniProt Q8TF76).
T3 sequence (Q8TF76 1-798): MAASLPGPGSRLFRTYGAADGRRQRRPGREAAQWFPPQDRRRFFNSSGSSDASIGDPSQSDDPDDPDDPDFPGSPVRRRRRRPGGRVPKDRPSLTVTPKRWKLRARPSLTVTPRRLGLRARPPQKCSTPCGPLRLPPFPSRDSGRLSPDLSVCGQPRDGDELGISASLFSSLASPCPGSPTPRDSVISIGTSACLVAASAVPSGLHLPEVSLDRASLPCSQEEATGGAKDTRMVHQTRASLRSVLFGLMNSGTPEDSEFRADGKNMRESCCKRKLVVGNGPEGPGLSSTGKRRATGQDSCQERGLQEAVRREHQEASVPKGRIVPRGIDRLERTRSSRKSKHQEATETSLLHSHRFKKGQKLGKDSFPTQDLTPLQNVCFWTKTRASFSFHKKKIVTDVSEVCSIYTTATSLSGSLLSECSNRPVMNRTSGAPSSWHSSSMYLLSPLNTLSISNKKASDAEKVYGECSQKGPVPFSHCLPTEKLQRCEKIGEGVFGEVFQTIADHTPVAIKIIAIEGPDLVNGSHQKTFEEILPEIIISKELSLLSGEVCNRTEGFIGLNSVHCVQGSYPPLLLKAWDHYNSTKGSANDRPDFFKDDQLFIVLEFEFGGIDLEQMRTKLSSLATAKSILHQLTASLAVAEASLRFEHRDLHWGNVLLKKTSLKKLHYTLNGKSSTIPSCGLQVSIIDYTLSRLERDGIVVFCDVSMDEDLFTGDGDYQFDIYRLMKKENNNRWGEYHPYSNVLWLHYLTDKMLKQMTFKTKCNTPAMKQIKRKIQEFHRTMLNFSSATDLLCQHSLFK
Excerpt: as §1, §2, §3, §4, §5

The next experiment addresses CDK1/cyclinB(h) (Homo sapiens, UniProt P06493).
Excerpt: as §1, §2, §3, §4, §5

The next experiment has as its target CDK7/cyclinH/MAT1(h) (Homo sapiens, UniProt P50613).
Excerpt: as §1, §2, §3, §4, §5

The next experiment addresses Met(h) (Homo sapiens, UniProt P08581).
Excerpt: as §1, §2, §3, §4, §5

The next experiment has as its target MINK(h) (Homo sapiens, UniProt Q8N4C8).
Excerpt: as §1, §2, §3, §4, §5

The target in another experiment is CaMKI(h) (Homo sapiens, UniProt Q14012).
Excerpt: as §1, §2, §3, §4, §5

Chain of CDK1/cyclinB(h) (P06493 whole entry): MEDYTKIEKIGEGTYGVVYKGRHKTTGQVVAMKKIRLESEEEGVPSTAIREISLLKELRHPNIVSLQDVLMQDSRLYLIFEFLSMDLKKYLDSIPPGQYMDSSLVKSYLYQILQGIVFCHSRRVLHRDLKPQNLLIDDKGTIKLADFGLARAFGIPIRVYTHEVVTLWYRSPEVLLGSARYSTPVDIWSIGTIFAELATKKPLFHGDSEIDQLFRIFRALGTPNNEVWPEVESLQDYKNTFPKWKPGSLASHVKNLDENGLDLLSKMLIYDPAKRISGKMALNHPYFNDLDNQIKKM
Chain of CDK1/cyclinB(h) (P14635 whole entry partner): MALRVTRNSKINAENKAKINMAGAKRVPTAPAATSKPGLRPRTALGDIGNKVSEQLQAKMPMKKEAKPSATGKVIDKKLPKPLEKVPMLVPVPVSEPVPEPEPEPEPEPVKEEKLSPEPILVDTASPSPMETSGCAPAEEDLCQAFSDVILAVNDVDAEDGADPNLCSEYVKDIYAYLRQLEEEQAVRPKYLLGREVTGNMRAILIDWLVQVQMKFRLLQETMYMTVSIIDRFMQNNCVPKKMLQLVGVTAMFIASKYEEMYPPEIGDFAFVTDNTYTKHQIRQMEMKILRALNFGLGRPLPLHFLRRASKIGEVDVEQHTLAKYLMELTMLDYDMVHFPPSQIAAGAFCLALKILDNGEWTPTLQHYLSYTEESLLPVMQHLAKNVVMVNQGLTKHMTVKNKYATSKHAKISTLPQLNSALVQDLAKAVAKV
Chain of CDK7/cyclinH/MAT1(h) (P50613 whole entry): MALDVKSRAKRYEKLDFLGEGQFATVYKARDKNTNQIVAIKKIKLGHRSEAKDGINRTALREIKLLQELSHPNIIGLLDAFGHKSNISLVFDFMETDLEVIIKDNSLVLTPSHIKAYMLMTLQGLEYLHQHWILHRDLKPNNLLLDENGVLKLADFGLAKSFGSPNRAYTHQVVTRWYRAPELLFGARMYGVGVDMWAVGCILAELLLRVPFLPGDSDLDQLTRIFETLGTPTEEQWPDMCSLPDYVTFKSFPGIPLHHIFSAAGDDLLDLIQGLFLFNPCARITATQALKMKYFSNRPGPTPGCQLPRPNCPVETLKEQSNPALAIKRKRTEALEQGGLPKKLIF
Chain of CDK7/cyclinH/MAT1(h) (P51946 whole entry partner): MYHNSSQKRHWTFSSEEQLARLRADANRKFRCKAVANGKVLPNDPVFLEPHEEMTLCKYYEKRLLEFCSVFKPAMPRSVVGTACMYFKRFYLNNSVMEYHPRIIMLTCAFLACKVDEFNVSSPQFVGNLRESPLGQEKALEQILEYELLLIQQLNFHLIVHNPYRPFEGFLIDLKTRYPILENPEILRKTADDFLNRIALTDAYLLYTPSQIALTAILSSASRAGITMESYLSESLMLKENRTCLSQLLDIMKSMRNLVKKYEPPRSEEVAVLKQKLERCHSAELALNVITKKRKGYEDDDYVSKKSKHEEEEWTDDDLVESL
Chain of CDK7/cyclinH/MAT1(h) (P51948 whole entry partner): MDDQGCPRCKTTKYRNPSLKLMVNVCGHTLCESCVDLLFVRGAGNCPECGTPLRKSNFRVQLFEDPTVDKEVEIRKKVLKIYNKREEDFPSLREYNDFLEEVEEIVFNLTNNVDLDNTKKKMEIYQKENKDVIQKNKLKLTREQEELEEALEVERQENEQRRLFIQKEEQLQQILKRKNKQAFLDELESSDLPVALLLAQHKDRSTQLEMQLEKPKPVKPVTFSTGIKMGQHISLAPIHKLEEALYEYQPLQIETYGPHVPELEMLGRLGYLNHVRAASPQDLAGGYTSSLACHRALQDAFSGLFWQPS
Chain of CaMKI(h) (Q14012 whole entry): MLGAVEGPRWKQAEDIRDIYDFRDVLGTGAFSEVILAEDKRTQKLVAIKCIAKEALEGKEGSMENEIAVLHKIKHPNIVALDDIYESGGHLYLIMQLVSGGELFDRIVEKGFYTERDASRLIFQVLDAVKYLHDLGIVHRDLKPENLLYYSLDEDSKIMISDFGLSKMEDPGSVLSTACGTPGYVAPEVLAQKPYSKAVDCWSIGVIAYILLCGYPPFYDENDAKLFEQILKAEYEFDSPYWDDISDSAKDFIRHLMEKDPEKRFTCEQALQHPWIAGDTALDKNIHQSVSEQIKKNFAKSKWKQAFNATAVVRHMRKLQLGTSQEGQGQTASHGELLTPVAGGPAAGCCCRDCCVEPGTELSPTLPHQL
Chain of Met(h) (P08581 25-1390): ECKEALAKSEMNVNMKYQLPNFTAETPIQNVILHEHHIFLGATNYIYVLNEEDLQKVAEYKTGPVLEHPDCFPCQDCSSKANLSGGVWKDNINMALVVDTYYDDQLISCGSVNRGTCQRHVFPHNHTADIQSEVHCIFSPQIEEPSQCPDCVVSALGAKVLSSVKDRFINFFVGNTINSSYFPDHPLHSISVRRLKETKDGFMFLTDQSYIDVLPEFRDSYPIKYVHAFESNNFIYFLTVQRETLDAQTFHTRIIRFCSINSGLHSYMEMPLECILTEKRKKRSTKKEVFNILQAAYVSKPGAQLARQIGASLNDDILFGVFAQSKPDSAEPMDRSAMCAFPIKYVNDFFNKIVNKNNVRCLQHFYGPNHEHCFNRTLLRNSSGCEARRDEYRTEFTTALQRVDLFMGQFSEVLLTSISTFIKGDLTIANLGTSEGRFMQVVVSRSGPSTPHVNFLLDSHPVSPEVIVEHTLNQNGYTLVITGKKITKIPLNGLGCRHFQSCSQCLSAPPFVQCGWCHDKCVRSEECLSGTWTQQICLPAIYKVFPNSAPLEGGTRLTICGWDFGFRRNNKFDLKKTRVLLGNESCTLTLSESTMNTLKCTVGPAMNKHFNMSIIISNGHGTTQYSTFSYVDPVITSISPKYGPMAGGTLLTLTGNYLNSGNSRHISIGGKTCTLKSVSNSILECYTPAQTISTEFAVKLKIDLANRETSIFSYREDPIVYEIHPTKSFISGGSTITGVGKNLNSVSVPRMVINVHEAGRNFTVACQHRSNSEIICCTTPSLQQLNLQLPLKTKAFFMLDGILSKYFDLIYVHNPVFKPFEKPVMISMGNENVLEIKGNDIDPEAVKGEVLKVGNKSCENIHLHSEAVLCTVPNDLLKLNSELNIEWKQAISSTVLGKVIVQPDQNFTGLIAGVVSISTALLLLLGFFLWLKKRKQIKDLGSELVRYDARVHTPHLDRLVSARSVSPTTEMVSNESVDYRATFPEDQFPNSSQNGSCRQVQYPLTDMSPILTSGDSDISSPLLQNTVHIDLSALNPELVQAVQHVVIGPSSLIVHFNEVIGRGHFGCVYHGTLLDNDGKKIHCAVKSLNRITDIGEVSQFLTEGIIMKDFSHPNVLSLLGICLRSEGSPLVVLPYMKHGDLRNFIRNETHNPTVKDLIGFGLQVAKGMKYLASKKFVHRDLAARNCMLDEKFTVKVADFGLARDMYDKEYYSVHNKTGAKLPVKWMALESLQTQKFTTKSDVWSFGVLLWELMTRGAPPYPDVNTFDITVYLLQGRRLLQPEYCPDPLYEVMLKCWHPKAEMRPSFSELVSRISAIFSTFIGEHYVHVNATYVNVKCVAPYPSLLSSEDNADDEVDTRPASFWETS
Chain of MINK(h) (Q8N4C8 whole entry): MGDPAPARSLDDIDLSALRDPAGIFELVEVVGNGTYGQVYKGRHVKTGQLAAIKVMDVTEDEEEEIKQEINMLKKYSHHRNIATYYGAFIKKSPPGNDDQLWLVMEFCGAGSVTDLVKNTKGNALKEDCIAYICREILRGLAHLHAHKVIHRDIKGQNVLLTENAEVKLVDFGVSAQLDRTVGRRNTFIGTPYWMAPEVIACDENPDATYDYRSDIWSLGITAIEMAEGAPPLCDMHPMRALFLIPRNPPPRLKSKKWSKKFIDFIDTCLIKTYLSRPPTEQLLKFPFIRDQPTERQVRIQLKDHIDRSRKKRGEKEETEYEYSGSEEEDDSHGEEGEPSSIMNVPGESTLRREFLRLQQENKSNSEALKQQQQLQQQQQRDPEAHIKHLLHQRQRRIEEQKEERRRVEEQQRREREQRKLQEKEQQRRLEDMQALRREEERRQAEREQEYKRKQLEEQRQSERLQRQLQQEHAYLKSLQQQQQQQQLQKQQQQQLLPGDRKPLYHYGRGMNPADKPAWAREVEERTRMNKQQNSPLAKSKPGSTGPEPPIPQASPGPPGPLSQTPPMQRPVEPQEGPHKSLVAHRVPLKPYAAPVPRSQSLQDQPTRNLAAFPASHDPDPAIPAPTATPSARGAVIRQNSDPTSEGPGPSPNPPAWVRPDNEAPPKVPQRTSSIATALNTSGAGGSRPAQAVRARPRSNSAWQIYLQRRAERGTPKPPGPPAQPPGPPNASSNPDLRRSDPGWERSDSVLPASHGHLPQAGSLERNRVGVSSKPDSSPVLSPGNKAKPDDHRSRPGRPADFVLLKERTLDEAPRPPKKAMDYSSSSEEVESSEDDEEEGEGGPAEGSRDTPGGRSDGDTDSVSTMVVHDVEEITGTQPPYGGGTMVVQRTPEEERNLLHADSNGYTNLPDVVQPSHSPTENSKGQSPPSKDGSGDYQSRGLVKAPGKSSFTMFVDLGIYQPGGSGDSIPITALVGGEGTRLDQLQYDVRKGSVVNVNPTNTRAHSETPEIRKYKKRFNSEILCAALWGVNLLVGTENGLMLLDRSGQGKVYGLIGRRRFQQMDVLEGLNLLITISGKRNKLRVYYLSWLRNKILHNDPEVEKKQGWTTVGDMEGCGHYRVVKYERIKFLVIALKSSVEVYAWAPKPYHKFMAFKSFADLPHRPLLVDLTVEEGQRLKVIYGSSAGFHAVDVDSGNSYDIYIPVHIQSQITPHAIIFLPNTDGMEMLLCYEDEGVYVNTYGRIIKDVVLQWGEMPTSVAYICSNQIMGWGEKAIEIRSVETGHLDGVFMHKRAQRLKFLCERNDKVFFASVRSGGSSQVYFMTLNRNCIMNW

As a reminder, the inhibition is the change of the read-out against control, counted positive when it falls. As to `Nc1n[nH]c2ccc(-c3ccnc4[nH]c(-c5ccccc5)cc34)cc12` [Compound 4], the inhibition at 1 µM against GCK(h) was found to be 98%; against EphA1(h), 87%; against Haspin(h) it was 101%; on CDK1/cyclinB(h) it was 101%; against CDK7/cyclinH/MAT1(h), 85%; against Met(h), 61%. The values for the inhibition at 1 µM against MINK(h) and against CaMKI(h) were 92% and 9%, respectively.
On to `Nc1n[nH]c2ccc(-c3ccnc4[nH]c(-c5cccc(OCc6ccccc6)c5)cc34)cc12` [Compound 5r [SU1261]], for which the inhibition at 1 µM against GCK(h) was determined as 86%; at EphA1(h), 24%; against Haspin(h), 94%; on CDK1/cyclinB(h), 77%; against CDK7/cyclinH/MAT1(h), 37%; against Met(h), 14%. For the same molecule, the inhibition at 1 µM on MINK(h) was 51%; against CaMKI(h) it was -6%.
As to `Nc1n[nH]c2ccc(-c3ccnc4[nH]c(-c5ccnc(OCc6ccccc6)c5)cc34)cc12` [Compound 6g [SU1349]], the inhibition at 1 µM on GCK(h) is 71%; at EphA1(h), -7%; on Haspin(h), 92%; at CDK1/cyclinB(h) it was 58%; at CDK7/cyclinH/MAT1(h), 14%; against Met(h) it was -3%. Besides, the inhibition at 1 µM against MINK(h) is 41%; at CaMKI(h) it was 1%.
